Source: patent US8637321B2, “Lipidomics approaches for central nervous system disorders” (priority 2005, dated 2014)

What was measured:
[1] = cited from earlier work; for risk of DM / metabolic effect: patients with schizophrenia; for effect on serum lipids / effects on serum glucose: in vivo; for weight gain, mean increases during the first year of therapy: prospective data
[2] = test system: patients with schizophrenia; experiment: plasma lipid profiling pre- and post-treatment with antipsychotics; assay type: in vivo, human; as to CE18:3n3 I/D: key: I: increase; D: decrease; as to CE18:3n6 I/D: key: I: increase; D: decrease; as to CE20:3n6 I/D: key: I: increase; D: decrease; as to CE20:5n3 I/D: key: I: increase; D: decrease; as to FA18:0 I/D: key: I: increase; D: decrease; as to FA20:4n6 I/D: key: I: increase; D: decrease; as to FA22.1n9 I/D: key: I: increase; D: decrease; as to FASAT I/D: key: I: increase; D: decrease; as to FCLC I/D: key: I: increase; D: decrease; as to LY20:3n6 I/D: key: I: increase; D: decrease; as to LY20:3n9 I/D: key: I: increase; D: decrease; as to LY20:4n3 I/D: key: I: increase; D: decrease; as to LY20:5n3 I/D: key: I: increase; D: decrease; as to PC.n9 I/D: key: I: increase; D: decrease; as to PC18:0 I/D: key: I: increase; D: decrease; as to PC18:1n9 I/D: key: I: increase; D: decrease; as to PC20:2n6 I/D: key: I: increase; D: decrease; as to PC20:3n6 I/D: key: I: increase; D: decrease; as to PC20:3n9 I/D: key: I: increase; D: decrease; as to PC20:4n3 I/D: key: I: increase; D: decrease; as to PC20:5n3 I/D: key: I: increase; D: decrease; as to PC22:0 I/D: key: I: increase; D: decrease; as to PC22:4n6 I/D: key: I: increase; D: decrease; as to PCLC I/D: key: I: increase; D: decrease; as to PE18:3n6 I/D: key: I: increase; D: decrease; as to PE20:3n6 I/D: key: I: increase; D: decrease; as to PE20:3n9 I/D: key: I: increase; D: decrease; as to PE20:5n3 I/D: key: I: increase; D: decrease; as to PE22:5n6 I/D: key: I: increase; D: decrease; as to PELC I/D: key: I: increase; D: decrease; as to SP14:0 I/D: key: I: increase; D: decrease; as to SP20:3n6 I/D: key: I: increase; D: decrease; as to SPSAT I/D: key: I: increase; D: decrease; as to TG14:0 I/D: key: I: increase; D: decrease; as to TG18:0 I/D: key: I: increase; D: decrease; as to TG20:1n9 I/D: key: I: increase; D: decrease; as to TG20:3n6 I/D: key: I: increase; D: decrease; as to TG20:4n3 I/D: key: I: increase; D: decrease; as to TGLC I/D: key: I: increase; D: decrease
Source text: (§1) Fifty male and female patients were recruited in two studies for metabolic profiling (Table VI and Table VII for demographics). Subjects ranged in age from 18 to 60 years and met the following inclusion criteria: a) DSM-IV criteria for schizophrenia, schizophreniform disorder, or schizoaffective disorder; b) newly hospitalized for a psychotic exacerbation in the setting of no antipsychotic treatment for at least 3 weeks prior to admission; and c) provided signed informed consent. Patients with psychoses due to psychoactive substance abuse or an underlying medical condition were excluded. Patients who were receiving treatment for diabetes mellitus or hyperlipidemia were also excluded.
The choice and dose of antipsychotic medication was based on the doctor's judgment. […] The treatment duration was 2-3 weeks. […] The mean duration of therapy was about 2 weeks for all 3 drugs in Study II. The drug groups were otherwise generally similar in severity of disease and physical characteristics (Table VI and Table VII). The 2-3 week duration permits the study of acute early effects.
All blood samples were drawn from subjects in the early morning after overnight fasting. Blood was drawn into vacutainer tubes containing sodium heparin, immediately placed on ice, and within 10 minutes, the blood was centrifuged and the plasma was transferred into polypropylene tubes and stored in a −30° C. freezer. All baseline samples were drawn prior to starting antipsychotic treatment in the study. If a patient had received a dose of an antipsychotic during the referral process (e.g., because of agitation when initially seen in a local emergency department), drawing of baseline plasma samples was delayed for 2-3 days. Follow-up samples were drawn after patients had received an average of 2-3 weeks of acute antipsychotic treatment.
A comprehensive assessment of plasma lipid profiles was performed (Lipomics Technologies, West Sacramento, Calif.) according to established methods (Watkins, et al. (2002) J. Lipid Res. 43(11):1809-17). Quantitative measurements of fatty acids in various lipid classes were determined as nmol fatty acid/gram of plasma. Lipid classes included cholesterol esters (CE), free cholesterol (FC), triacylglycerols (TG), diacylglycerols (DG), free fatty acids (FA), lysophosphatidylcholine (LY), phosphatidylcholine (PC), and phosphatidylethanolamine (PE). Lipid metabolites are identified by the lipid class and the fatty acid moiety. In the context of this invention, fatty acids are identified first by the number of carbons in the molecule (e.g., 20), the number of double bonds in the molecule (e.g., 4), and lastly the position of the double bonds (e.g., n6). To illustrate, PC20:4n6 denotes a phosphatidylcholine molecule containing a 20 carbon fatty acid with 4 double bonds at the n6 position.
Significant differences between pre- and post-drug treatment were assessed by paired t-tests. Evaluation of response to drug was assessed by two-way ANOVA. All statistics were done using R with the following functions: t.test, anova, prcomp, and g/m (Team RDC (2005) R: A language and environment for statistical computing. R Foundation for Statistical Computing). Before beginning statistical analyses, change detection was used to determine if observed signals were greater than that which could be expected by chance (noise). The chance distribution of p-values was determined by permuting the outcome groupings (Golub, et al. (1999) Science 286(5439):531-7). Briefly, P values for the appropriate comparison were calculated for each metabolite using a Student's t-test. The metabolites were ranked by p value from smallest to largest. The log of the rank versus the log of the p value for each comparison of interest was plotted and is represented by a colored line. The distribution of p values expected by chance at each rank is indicated by the shaded area. […]

[3] = test system: patients with schizophrenia; experiment: Clinical Global Impressions (CGI) Scale psychopathology assessment; assay type: in vivo, human; conditions: means and standard error; for CGI Affective, Post / CGI Negative, Post / CGI Positive, Post: CGI Scale 1 to 7, higher scores greater severity; for CGI Change, Post: overall global change rating at follow-up (1-2 responders, 3-6 non-responders)
Source text: as §1
The choice and dose of antipsychotic medication was based on the doctor's judgment. […] The treatment duration was 2-3 weeks. […] The 2-3 week duration permits the study of acute early effects.
Psychopathology was assessed on the Clinical Global Impressions (CGI) Scale at baseline and at the time of follow-up blood draws. Scores for the CGI Scale can range from 1 to 7, with higher scores indicating greater severity of illness (Guy (1975) ECDEU Assessment Manual for Psychopharmacology: Publication ADM 76-338. Washington, D.C.: US Department of Health, Education, and Welfare). An overall global change rating was also made at the time of the follow-up blood draw.

[4] = Study I, plasma, post-treatment vs pre-treatment
[5] = Study II, plasma, post vs pre-treatment
[6] = plasma, mole percentage data, post treatment compared with pretreatment
[7] = plasma, total lipid class data (nmol/g sample), post treatment compared with pretreatment
[8] = Study I, after 2-3 weeks treatment
[9] = Study II, about 2 weeks treatment

CN1CCN(C2=Nc3cc(Cl)ccc3Nc3ccccc32)CC1 [clozapine]
risk of DM / metabolic effect [1]: higher risk

O=C1Cc2cc(CCN3CCN(c4nsc5ccccc45)CC3)c(Cl)cc2N1 [ziprasidone]
effect on serum lipids [1]: lipid-neutral | effects on serum glucose [1]: minimal effects

O=C1CCc2ccc(OCCCCN3CCN(c4cccc(Cl)c4Cl)CC3)cc2N1 [Aripiprazole, aripiprazole]
PE class concentration [2, 4]: increased | fatty acid concentrations [2, 4]: very little change | lipid changes overall [2, 4]: Minimal significant lipid changes | n7 and n9 free fatty acids [2, 4]: no change | total lipid classes other than PE [2, 4]: no other total lipid class changes | lipid changes overall ([2]; Study II (replication set), plasma, post vs pre-treatment): minimal lipid changes | fatty acid concentrations [2, 5]: very little change | other lipid classes (than PE) [2, 5]: No significant changes | PE concentration ([2]; Study II, plasma, post-treatment vs pre-treatment): increased | plasma fatty acid compositions ([2]; patients after treatment): affected minimally | CE18:0 I/D [2, 6]: I | LY22.5n3 I/D [2, 6]: I | PC22:5n6 I/D [2, 6]: I | SP14:1n5 I/D [2, 6]: I | SP18:3n3 I/D [2, 6]: I | SPSAT I/D [2, 6]: I | TG18:0 I/D [2, 6]: I | TG22:2n6 I/D [2, 6]: I | PELC I/D [2, 7]: I | CGI Affective, Post [3, 8]: 1.5 ± 0.3 | CGI Negative, Post [3, 8]: 1.3 ± 0.3 | CGI Positive, Post [3, 8]: 2.5 ± 0.3 | CGI Change, Post ([3]; Study I): 2.5 ± 0.3 | CGI Affective, Post [3, 9]: 1.4 ± 0.2 | CGI Negative, Post [3, 9]: 1.6 ± 0.3 | CGI Positive, Post [3, 9]: 2.5 ± 0.2 | CGI Change, Post ([3]; Study II): 2.8 ± 0.2 | effect on serum lipids [1]: lipid-neutral | effects on serum glucose [1]: minimal effects

O=C(CCCN1CCC(O)(c2ccc(Cl)cc2)CC1)c1ccc(F)cc1 [haloperidol]
risk of DM / metabolic effect [1]: metabolically neutral

OCCOCCN1CCN(C2=Nc3ccccc3Sc3ccccc32)CC1 [quetiapine]
effect on serum lipids [1]: discrepant data | weight gain, mean increases during the first year of therapy [1]: 6.1-12.3 lbs

Cc1cc2c(s1)Nc1ccccc1N=C2N1CCN(C)CC1 [Olanzapine, olanzapine]
CE18:3n3 I/D [2, 6]: I | CE18:3n6 I/D [2, 6]: I | CE20:3n6 I/D [2, 6]: I | CE20:5n3 I/D [2, 6]: I | FA18:0 I/D [2, 6]: I | FA20:4n6 I/D [2, 6]: I | FA22.1n9 I/D [2, 6]: I | FASAT I/D [2, 6]: I | LY20:3n6 I/D [2, 6]: I | LY20:3n9 I/D [2, 6]: I | LY20:4n3 I/D [2, 6]: I | LY20:5n3 I/D [2, 6]: I | PC18:0 I/D [2, 6]: I | PC18:1n9 I/D [2, 6]: I | PC20:2n6 I/D [2, 6]: I | PC20:3n6 I/D [2, 6]: I | PC20:3n9 I/D [2, 6]: I | PC20:4n3 I/D [2, 6]: I | PC20:5n3 I/D [2, 6]: I | PC22:0 I/D [2, 6]: I | PC22:4n6 I/D [2, 6]: I | PC.n9 I/D [2, 6]: I | PE18:3n6 I/D [2, 6]: I | PE20:3n6 I/D [2, 6]: I | PE20:3n9 I/D [2, 6]: I | PE20:5n3 I/D [2, 6]: I | PE22:5n6 I/D [2, 6]: I | SP14:0 I/D [2, 6]: I | SP20:3n6 I/D [2, 6]: I | SPSAT I/D [2, 6]: I | TG14:0 I/D [2, 6]: I | TG20:1n9 I/D [2, 6]: I | TG20:3n6 I/D [2, 6]: I | TG20:4n3 I/D [2, 6]: I | FCLC I/D [2, 7]: I | PCLC I/D [2, 7]: I | PELC I/D [2, 7]: I | TGLC I/D [2, 7]: I | CGI Affective, Post [3, 8]: 1.5 ± 0.2 | CGI Negative, Post [3, 8]: 2.2 ± 0.3 | CGI Positive, Post [3, 8]: 2.9 ± 0.2 | CGI Change, Post ([3]; Study I): 2.8 ± 0.2 | CGI Affective, Post [3, 9]: 1.2 ± 0.2 | CGI Negative, Post [3, 9]: 1 ± 0 | CGI Positive, Post [3, 9]: 2.4 ± 0.2 | CGI Change, Post ([3]; Study II): 3 ± 0.3 | risk of DM / metabolic effect [1]: higher risk | weight gain, mean increases during the first year of therapy [1]: 15.0-26.0 lbs
